The text below walks through data of ChEMBL document CHEMBL1201862, “PubChem BioAssay data set” (2004).

Each structure is given as a SMILES string. Calls of active or inactive are those of the source.

The nature of assay [1]: A Cell Based Secondary Assay to Explore Cytotoxicity in THP-1 Cells of Compounds that Modulate Mycobacterium tuberculosis in Media Containing Glycerol versus Media without Glycerol (2). In kind it is functional.
The nature of assay [2]: microbe, parasite or virus in culture. In kind it is functional. The conditions noted are these: Mycobacterium tuberculosis.
Assay [3] can be described thus: HepG2 cell cytotoxicity, cytotoxicity control, set 4 (AID 504910). In kind it is functional. The conditions noted are these: Mycobacterium tuberculosis.
In assay [4] the target is T1, Corticotropin-releasing factor receptor 2/Corticotropin-releasing factor-binding protein (Homo sapiens, UniProt P24387+Q13324).
T1 sequence (Q13324 whole entry): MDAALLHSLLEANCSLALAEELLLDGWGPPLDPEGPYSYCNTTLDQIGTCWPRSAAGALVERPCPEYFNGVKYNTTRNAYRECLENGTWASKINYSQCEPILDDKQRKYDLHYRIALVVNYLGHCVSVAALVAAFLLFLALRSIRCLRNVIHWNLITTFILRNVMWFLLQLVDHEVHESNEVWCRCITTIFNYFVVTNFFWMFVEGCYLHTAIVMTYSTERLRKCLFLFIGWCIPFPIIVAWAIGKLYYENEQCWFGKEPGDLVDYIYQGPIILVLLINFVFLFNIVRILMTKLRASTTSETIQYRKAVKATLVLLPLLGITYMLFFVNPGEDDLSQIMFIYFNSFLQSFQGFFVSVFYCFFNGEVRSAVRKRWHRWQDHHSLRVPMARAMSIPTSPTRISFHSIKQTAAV
T1 sequence (P24387 whole entry): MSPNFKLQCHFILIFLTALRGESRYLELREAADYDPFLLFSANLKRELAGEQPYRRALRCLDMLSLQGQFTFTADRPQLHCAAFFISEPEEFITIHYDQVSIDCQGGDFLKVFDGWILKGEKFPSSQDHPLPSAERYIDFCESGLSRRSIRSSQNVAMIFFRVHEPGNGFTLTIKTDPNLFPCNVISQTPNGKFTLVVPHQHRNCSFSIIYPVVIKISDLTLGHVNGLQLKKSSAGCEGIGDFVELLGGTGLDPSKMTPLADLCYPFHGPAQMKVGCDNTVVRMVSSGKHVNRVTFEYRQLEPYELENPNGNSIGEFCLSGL
Briefly: Dose Response confirmation of uHTS hits for small molecule antagonists of the CRF-binding protein and CRF-R2 receptor complex. In kind it is functional. The settings on record: read-out: IC50_Mean.

Assay [5] can be described thus: Vero cell cytotoxicity, dose response, cytotoxicity control for M. tuberculosis growth inhibitor project, Vero cells, purified and synthesized compounds, set 4 (AID 504854). In kind it is functional. The settings on record: Mycobacterium tuberculosis.
A short description of assay [6]: A Cell Based Secondary Assay to Explore Cytotoxicity in HepG2 Cells of Compounds that Modulate Mycobacterium tuberculosis in Media Containing Glycerol versus Media without Glycerol (2). In kind it is functional.
For assay [7], the target named is T1, Corticotropin-releasing factor receptor 2/Corticotropin-releasing factor-binding protein. Put plainly: activators of CRF receptor 2 with binding protein – uHTS hits, confirmation (AID 602473). In kind it is functional. The settings on record: read-out: EC50_Mean.
A short description of assay [8]: Vero cell cytotoxicity, dose response, cytotoxicity control for M. tuberculosis growth inhibitor project, Vero cells, purified and synthesized compounds, set 5 (AID 504909). In kind it is functional. The settings on record: Mycobacterium tuberculosis.
Assay [9] can be described thus: THP-1 cell cytotoxicity, dose response, cytotoxicity control, set 3 (AID 504852). In kind it is functional. The conditions noted are these: Mycobacterium tuberculosis.
A short description of assay [10]: THP-1 cell cytotoxicity, cytotoxicity control, set 4 (AID 504911). In kind it is functional. The settings on record: Mycobacterium tuberculosis.
Assay [11] in a line: HepG2 cell cytotoxicity, dose response, cytotoxicity control, set 3 (AID 504853). In kind it is functional. The conditions noted are these: Mycobacterium tuberculosis.
The nature of assay [12]: blockers of CRF-binding protein–CRF-R2 complex – cell-based, uHTS hits, 384-well, dose response (AID 651639). In kind it is functional, Homo sapiens. The settings on record: read-out: IC50_Mean.
A short description of assay [13]: Vero cell cytotoxicity, cytotoxicity control for M. tuberculosis inhibitor project, purified and synthesized samples, set 3 (AID 504684). The conditions noted are these: […]. In kind it is functional.

Turning to `Cc1ccc(C(=O)N/N=C(/CC(=O)c2cccs2)C(F)(F)F)cc1`, the CC50 in assay [1] was 89.8 µM (active); in [2], 28.2 µM (active); in assay [3], 38.8 µM (active); in [5] it was 55 µM (active); in assay [6], 35 µM (active); in [8], 34.4 µM (active). Moreover, the CC50 was 51.4 µM (active) in assay [9], 46.3 µM (active) in assay [10], > 50 µM (active) in [11] and 61.7 µM (active) in assay [13]. Moreover, the IC50 is 4.48 µM (active) in assay [4] and 16 µM (active) in [12]. The EC50 in assay [7] is > 53 µM (inactive).
